From PubChem BioAssay (NCI)
Several values for one entry are separate records, joined by “and”; a condition that tells them apart may be missing. Equal values may be shown once.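 Dose response: 5 concentrations. Exposure: 48 h. Format: 96-well plates. Endpoint: linear interpolation; highest concentration if not reached. Here, GI50 denotes the concentration required for 50% inhibition of growth. The concentration for full growth arrest is given as TGI.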

Tests used:
Assay in all cases: inhibition of tumour cell growth, NCI panel, 48 h
SK-MEL-2 melanoma = system: SK-MEL-2 melanoma
UACC-257 melanoma = system: UACC-257 melanoma
U251 CNS = system: U251 CNS
SK-MEL-5 melanoma = system: SK-MEL-5 melanoma
KM12 colon = system: KM12 colon
COLO 205 colon = system: COLO 205 colon
NCI-H522 lung = system: NCI-H522 lung
EKVX NSCLC = system: EKVX NSCLC
HCT-15 colon = system: HCT-15 colon
MDA-MB-435 = system: MDA-MB-435
MDA-MB-231 breast = system: MDA-MB-231 breast
HS 578T breast = system: HS 578T breast
CCRF-CEM leukemia = system: CCRF-CEM leukemia
SNB-75 CNS = system: SNB-75 CNS
M14 melanoma = system: M14 melanoma
SF-295 CNS = system: SF-295 CNS
786-0 renal = system: 786-0 renal
SK-OV-3 ovarian = system: SK-OV-3 ovarian
RPMI-8226 leukemia = system: RPMI-8226 leukemia
BT-549 breast = system: BT-549 breast
OVCAR-4 ovarian = system: OVCAR-4 ovarian
TK-10 renal = system: TK-10 renal
HCT-116 colon = system: HCT-116 colon
UO-31 renal = system: UO-31 renal
NCI-H460 lung = system: NCI-H460 lung
SF-539 CNS = system: SF-539 CNS
SK-MEL-28 melanoma = system: SK-MEL-28 melanoma
T-47D breast = system: T-47D breast
HCC-2998 colon = system: HCC-2998 colon
UACC-62 melanoma = system: UACC-62 melanoma
NCI-H226 lung = system: NCI-H226 lung
PC-3 prostate = system: PC-3 prostate
NCI-H23 lung = system: NCI-H23 lung
DU-145 prostate = system: DU-145 prostate
A498 renal = system: A498 renal
MOLT-4 leukemia = system: MOLT-4 leukemia
HOP-62 NSCLC = system: HOP-62 NSCLC
ACHN renal = system: ACHN renal
SN12C renal = system: SN12C renal
CAKI-1 renal = system: CAKI-1 renal
HL-60(TB) leukemia = system: HL-60(TB) leukemia
A549 NSCLC = system: A549 NSCLC
SR leukemia = system: SR leukemia
NCI/ADR-RES ovarian = system: NCI/ADR-RES ovarian
OVCAR-3 ovarian = system: OVCAR-3 ovarian
HT29 colon = system: HT29 colon
SW-620 colon = system: SW-620 colon
SF-268 CNS = system: SF-268 CNS
MCF7 breast = system: MCF7 breast
K-562 leukemia = system: K-562 leukemia
MALME-3M melanoma = system: MALME-3M melanoma
OVCAR-8 ovarian = system: OVCAR-8 ovarian
LOX IMVI melanoma = system: LOX IMVI melanoma
RXF 393 renal = system: RXF 393 renal
OVCAR-5 ovarian = system: OVCAR-5 ovarian
SNB-19 CNS = system: SNB-19 CNS
HOP-92 NSCLC = system: HOP-92 NSCLC

CC(C)c1cc(C(=O)N2Cc3ccc(CN4CCN(C)CC4)cc3C2)c(O)cc1O
GI50 (SK-MEL-2 melanoma): 736 nM and 710 nM | TGI (SK-MEL-2 melanoma): 4780 nM and 20100 nM | GI50 (UACC-257 melanoma): 95.4 nM and 484 nM | TGI (UACC-257 melanoma): 4460 nM and 15200 nM | GI50 (U251 CNS): 86.3 nM and 320 nM | TGI (U251 CNS): > 50500 nM and 19600 nM | GI50 (SK-MEL-5 melanoma): 163 nM and 459 nM | TGI (SK-MEL-5 melanoma): 17300 nM and 16500 nM | GI50 (KM12 colon): 29.1 nM and 77.2 nM | GI50 (COLO 205 colon): 42.2 nM and 44.4 nM | GI50 (NCI-H522 lung): 45.4 nM and 291 nM | TGI (NCI-H522 lung): 3200 nM and 18000 nM | GI50 (EKVX NSCLC): 983 nM and 1270 nM | TGI (EKVX NSCLC): > 100000 nM | GI50 (HCT-15 colon): 62.2 nM and 145 nM | TGI (HCT-15 colon): > 100000 nM and 21800 nM | GI50 (MDA-MB-435): 51.4 nM and 137 nM | TGI (MDA-MB-435): 21100 nM and 13400 nM | GI50 (MDA-MB-231 breast): 390 nM and 443 nM | TGI (MDA-MB-231 breast): 24800 nM and 13700 nM | GI50 (HS 578T breast): 716 nM and 1870 nM | TGI (HS 578T breast): 35300 nM and 43900 nM | GI50 (CCRF-CEM leukemia): 73.7 nM and 106 nM | TGI (CCRF-CEM leukemia): > 100000 nM and 30200 nM | GI50 (SNB-75 CNS): 1270 nM and 2190 nM | TGI (SNB-75 CNS): 46700 nM and > 57300 nM | GI50 (M14 melanoma): 65.9 nM and 334 nM | TGI (M14 melanoma): 15600 nM and 14600 nM | GI50 (SF-295 CNS): 37.1 nM and 158 nM | TGI (SF-295 CNS): 2060 nM and 3240 nM | GI50 (786-0 renal): 1930 nM and 640 nM | TGI (786-0 renal): 30500 nM and 21000 nM | GI50 (SK-OV-3 ovarian): 31.5 nM and 64.4 nM | TGI (SK-OV-3 ovarian): 54000 nM and 18800 nM | TGI (RPMI-8226 leukemia): > 100000 nM and 30200 nM | GI50 (BT-549 breast): 15900 nM and 2390 nM | TGI (BT-549 breast): > 100000 nM and 30400 nM | GI50 (OVCAR-4 ovarian): 5790 nM and 6390 nM | TGI (OVCAR-4 ovarian): > 100000 nM | GI50 (TK-10 renal): 42.8 nM and 381 nM | TGI (TK-10 renal): 49800 nM | GI50 (HCT-116 colon): 39.4 nM and 81.8 nM | TGI (HCT-116 colon): 15300 nM and 13400 nM | GI50 (UO-31 renal): 59.1 nM and 296 nM | TGI (UO-31 renal): 23600 nM and 18100 nM | GI50 (NCI-H460 lung): 31.1 nM and 53.4 nM | TGI (NCI-H460 lung): 16200 nM and 11600 nM | GI50 (SF-539 CNS): 1500 nM and 1000 nM | TGI (SF-539 CNS): 24300 nM and 18000 nM | GI50 (SK-MEL-28 melanoma): 98.3 nM and 536 nM | TGI (SK-MEL-28 melanoma): 18300 nM and 15800 nM | GI50 (T-47D breast): 63.1 nM and 342 nM | TGI (T-47D breast): 31200 nM and 34800 nM | GI50 (HCC-2998 colon): 45.5 nM and 213 nM | GI50 (UACC-62 melanoma): 69.7 nM and 286 nM | TGI (UACC-62 melanoma): 15400 nM and 3910 nM | GI50 (NCI-H226 lung): 414 nM and 553 nM | TGI (NCI-H226 lung): > 60300 nM and 50600 nM | GI50 (PC-3 prostate): 1970 nM and 483 nM | TGI (PC-3 prostate): > 100000 nM | GI50 (NCI-H23 lung): 60.6 nM and 458 nM | TGI (NCI-H23 lung): 97400 nM and > 53900 nM | GI50 (DU-145 prostate): 74.1 nM and 55.3 nM | TGI (DU-145 prostate): 24400 nM and 18800 nM | TGI (A498 renal): > 100000 nM and 15200 nM | GI50 (MOLT-4 leukemia): 47.3 nM and 177 nM | TGI (MOLT-4 leukemia): > 66400 nM and 20700 nM | GI50 (HOP-62 NSCLC): 128 nM and 656 nM | TGI (HOP-62 NSCLC): > 92200 nM | GI50 (ACHN renal): 66.1 nM and 210 nM | TGI (ACHN renal): > 100000 nM | GI50 (SN12C renal): 106 nM and 498 nM | TGI (SN12C renal): > 100000 nM | GI50 (CAKI-1 renal): 52.2 nM and 512 nM | GI50 (HL-60(TB) leukemia): 47.9 nM and 212 nM | TGI (HL-60(TB) leukemia): 16200 nM and 11600 nM | GI50 (A549 NSCLC): 44 nM and 238 nM | TGI (A549 NSCLC): > 46000 nM and 37100 nM | GI50 (SR leukemia): 37.1 nM and 59.3 nM | TGI (SR leukemia): 84000 nM and 17100 nM | GI50 (NCI/ADR-RES ovarian): 245 nM and 779 nM | TGI (NCI/ADR-RES ovarian): > 90000 nM | GI50 (OVCAR-3 ovarian): 79.3 nM and 452 nM | TGI (OVCAR-3 ovarian): 23400 nM and 20900 nM | GI50 (HT29 colon): 42.8 nM and 58 nM | TGI (HT29 colon): > 32800 nM and 12600 nM | GI50 (SW-620 colon): 37.6 nM and 55.7 nM | TGI (SW-620 colon): 23600 nM and 14800 nM | TGI (SF-268 CNS): 59100 nM and 54300 nM | GI50 (MCF7 breast): 25.4 nM and 48.4 nM | TGI (MCF7 breast): 24100 nM and 30500 nM | GI50 (K-562 leukemia): 47.2 nM and 207 nM | TGI (K-562 leukemia): > 100000 nM and 16200 nM | GI50 (MALME-3M melanoma): 40.3 nM and 271 nM | TGI (MALME-3M melanoma): 1260 nM and 1660 nM | GI50 (OVCAR-8 ovarian): 60.4 nM and 300 nM | TGI (OVCAR-8 ovarian): > 100000 nM | GI50 (LOX IMVI melanoma): 55 nM and 177 nM | TGI (LOX IMVI melanoma): 369 nM and 2520 nM | GI50 (RXF 393 renal): 916 nM and 2360 nM | TGI (RXF 393 renal): 30500 nM and 28800 nM | TGI (OVCAR-5 ovarian): > 100000 nM | GI50 (SNB-19 CNS): 872 nM and 847 nM | TGI (SNB-19 CNS): > 100000 nM | GI50 (HOP-92 NSCLC): 617 nM and 498 nM | TGI (HOP-92 NSCLC): 35300 nM and 11000 nM
